Measured values from US6809092B2, “Benezene-fused heteroring derivatives and pharmaceutical agents comprising the same as active ingredient” (Ono Pharmaceutical Co., Ltd., priority 2000, dated 2004).

Key:
Assay type in all cases: biochemical
[1] = biological target: T1, cathepsin K (Homo sapiens, UniProt P43235); experiment: Measurement of cathepsin K inhibitory activity; conditions: Dixon plot, pH 5.5, 37° C.
T1 sequence (P43235 115-329): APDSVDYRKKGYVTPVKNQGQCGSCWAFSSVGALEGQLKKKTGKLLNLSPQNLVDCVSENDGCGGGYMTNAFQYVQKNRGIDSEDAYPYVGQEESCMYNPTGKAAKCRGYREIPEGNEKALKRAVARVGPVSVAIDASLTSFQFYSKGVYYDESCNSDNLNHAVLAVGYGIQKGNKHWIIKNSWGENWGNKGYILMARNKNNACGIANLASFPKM
Method: (i) Measurement of Cathepsin K Inhibitory Activity
65 μL of Cathepsin K enzyme reaction buffer (50 mmol/L of 2-(N-morpholino)ethanesulfonate, 2 mmol/L of ethylenediamine tetraacetate (EDTA) and 4 mmol/L of dithiothreitol (DTT) were mixed to adjust to pH 5.5), 5 μL of cysteine protease inhibitor solution of several concentrations, 20 μL of synthesized substrate (t-butyloxycarbonyl-L-alanyl-glycyl-L-prolyl-L-arginine-4-methyl-chromanyl-7-amide) solution of several concentrations and 10 μL of cathepsin K enzyme solution were mixed and the increase of fluorescence intensity when reacted at 37° C. was measured (λ ex (excitation wavelength)=355 nm, λ em (fluorescence wavelength)=460 nm). As to the substrate and the compound of the present invention, enzyme reactions were carried out in combination of several appropriate concentrations and Dixon plotting was prepared, to define the absolute value of X-coordinate of the intersection point of the graph as Ki value.

[2] = biological target: cathepsin B (Homo sapiens, UniProt P07858); experiment: Measurement of cathepsin B inhibitory activity
Method: (ii) Measurement of Cathepsin B Inhibitory Activity
10 μL of Synthesized substrate (carbobenzoxy-L-arginyl-L-arginine-4-methyl-chromanyl-7-amide or carbobenzoxy-L-phenylalanyl-L-arginine-4-methyl-chromanyl-7-amide) solution of several concentrations, 10 μL of cysteine protease inhibitor solution of several concentrations, 70 μL of cathepsin B enzyme reaction buffer (mixture of 400 mmol/L in acetic acid, 4 mmol/L EDTA, 8 mmol/L DDT to adjust to pH 5.5) and 10 μL of cathepsin B enzyme solution were mixed and the increase of fluorescence intensity was measured (λ ex (excitation wavelength)=355 nm, μ em (fluorescence wavelength)=460 nm) when reacted at 37° C.
For example, the inhibitory activity of the compound of example 10 was 95% at 1 μM.

[3] = biological target: cathepsin L (Homo sapiens, UniProt P07711); experiment: Measurement of cathepsin L inhibitory activity
Method: (iv) Measurement of Cathepsin L Inhibitory Activity
5 μL of Synthesized substrate (carbobenzoxy-L-phenylalanyl-L-arguine-4-methyl-chromanyl-7-amide or L-prolyl-L-phenylalanyl-L-arguinine-4-methyl-chromanyl-7-amide) solution and 5 μL of cysteine protease inhibitor solution of several concentrations, 80 μL of cathepsin L enzyme reaction buffer (400 mmol/L acetic acid, 4 mmol/L EDTA, 8 mmol/L DTT were mixed to adjust to pH 5.5) and 10 μL of cathepsin L enzyme solution were mixed and the increase of fluorescence intensity was measured (λ ex (excitation wavelength)=355 nm, λ em (fluorescence wavelength)=460 nm) when reacted at 37° C.
For example, the inhibitory activity of the compound of example 22(4) was 97% at 1 μM.

[4] = biological target: cathepsin S (Homo sapiens, UniProt P25774); experiment: Measurement of cathepsin S inhibitory activity
Method: (iii) Measurement of Cathepsin S Inhibitory Activity
10 μL of synthesized substrate (carbobenzoxy-L-leucyl-L-leucyl-L-arguinine-4-methyl-chromanyl-7-amide) solution and 5 μL of cysteine protease inhibitor solution of several concentrations, 75 μL of cathepsin S enzyme reaction buffer (100 mmol/L of sodium phosphate, 2 mmol/L of EDTA, 2 mmol/L of DTT were mixed to adjust to pH 6.5) and 10 μL of cathepsin S enzyme solution were mixed and the increase of fluorescence intensity was measured (λ ex(excitation wavelength)=355 nm, λ em (fluorescence wavelength)=460 nm) when reacted at 37° C.
It was confirmed that the compound of the present invention of formula (I) has an inhibitory effect more than 50% at 10 μM. For example, the inhibitory activity of the compound of example 18 was 98% at 1 μM.

Sequence of cathepsin S (P25774 115-331, species assumed): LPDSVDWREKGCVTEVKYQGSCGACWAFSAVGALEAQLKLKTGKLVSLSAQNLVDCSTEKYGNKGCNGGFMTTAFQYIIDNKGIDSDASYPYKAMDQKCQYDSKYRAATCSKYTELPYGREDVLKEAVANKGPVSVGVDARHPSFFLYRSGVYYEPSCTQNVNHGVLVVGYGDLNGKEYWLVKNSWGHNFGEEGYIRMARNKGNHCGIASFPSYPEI
Sequence of cathepsin L (P07711 114-333, species assumed): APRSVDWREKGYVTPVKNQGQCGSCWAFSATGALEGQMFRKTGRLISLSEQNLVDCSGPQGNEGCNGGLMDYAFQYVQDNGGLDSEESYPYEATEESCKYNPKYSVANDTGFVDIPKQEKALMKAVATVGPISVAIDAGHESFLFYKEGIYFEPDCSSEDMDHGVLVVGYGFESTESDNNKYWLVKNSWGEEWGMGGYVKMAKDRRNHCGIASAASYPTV

SMILES | Ki [1] | also measured
CC(C)C[C@H](NC(=O)[C@@H]1CCCC[C@@H]1NC(=O)c1ccccc1)C(=O)CN1CCCc2ccccc2C1 [example 3] | 170 nM | –
CC(C)C[C@H](NC(=O)[C@@H]1CCCC[C@@H]1NC(=O)c1ccccc1)C(=O)CN1CCCCc2ccccc21 [example 10] | – | inhibition at 1 µM [2]: 95%
CC(C)C[C@H](NC(=O)[C@H](CC(C)C)NC(=O)OCc1ccccc1)C(=O)CN1CCN(C(C)C)c2ccccc2C1 [example 22(4), (2S)-N-[(3S)-5-methyl-1-(1-isopropyl-2,3,4,5-tetrahydro-1H-1,4-benzodiazepin-4-yl)-2-oxo-3-hexyl]-2-benzyloxycarbonyl amino-4-methylpentanamide] | – | inhibition at 1 µM [3]: 97%
CC(C)C[C@H](NC(=O)[C@H](CC(C)C)NC(=O)OCc1ccccc1)C(=O)CN1CCCc2ccccc2C1 [3(14), (2S)-N-[(3S)-5-methyl-2-oxo-1-(1,3,4,5-tetrahydro-2H-2-benzazepin-2-yl)-3-hexyl]-4-methyl-2-benzyloxycarbonylamino pentanamide] | 100 nM | –
CC(C)CC(NC(=O)[C@H](CC(C)C)NC(=O)OCc1ccccc1)C(=O)CN1CCCc2cc(O)ccc2C1 (stereo partly drawn) [example 18] | – | inhibition at 1 µM [4]: 98%
CC(C)C[C@H](NC(=O)[C@H](CC(C)C)NC(=O)OCc1ccccc1)C(=O)CN1CCSc2ccccc2C1 [example 31, (2S)-N-[(3S)-5-methyl-2-oxo-1-(2,3,4,5-tetrahydro-1,4-benzothiazepin-4-yl)-3-hexyl]-2-benzyloxycarbonylamino-4-methylpentanamide] | 81 nM | –
